Where a name gives a salt, the structure may show the parent alone.
Columns and labels:
[1] = test system: HepG2 (hepatocellular carcinoma); assay: MTT proliferation assay, 72 h; type: cell-based, human; conditions: Homo sapiens; HepG2 cells, MTT, 72 h
Experimental: (§1) The cell lines HeLa (cervical carcinoma), SW620 (colorectal adenocarcinoma, metastatic), A549 (lung adenocarcinoma), HepG2 (hepatocellular carcinoma) and HFF (human foreskin fibroblasts) were cultured as monolayers and maintained in Dulbecco’s modified Eagle medium (DMEM), supplemented with 10% fetal bovine serum (FBS), 2mM L-glutamine, 100 U/mL penicillin and 100 μg/mL streptomycin in a humidified atmosphere with 5% CO2 at 37 °C.
(§2) Cells were seeded onto 96-well microtiter plates at a seeding density of 3000 cells/well for carcinoma cell lines, and 5000 cells/well for normal human fibroblasts. The next day, cells were treated with test agents at five different concentrations (0.01–100 µM) and further incubated for 72 h. […] Following 72 h incubation, the MTT assay was performed and measured absorbances were transformed into percentage of cell growth as described previously. Results were obtained from three independent experiments.

[2] = test system: HeLa (cervical carcinoma); assay: MTT proliferation assay, 72 h; type: cell-based, human; conditions: Homo sapiens; HeLa cells, MTT, 72 h
Experimental: as §1, §2

[3] = test system: SW620 (colorectal adenocarcinoma, metastatic); assay: MTT proliferation assay, 72 h; type: cell-based, human; conditions: Homo sapiens, SW-620; SW620 cells, MTT, 72 h
Experimental: as §1, §2

[4] = test system: HFF (human foreskin fibroblasts); assay: MTT proliferation assay, 72 h, non-tumor cells; type: cell-based; parameters: selectivity index (SI): reference not given here
Experimental: as §1, §2

[5] = test system: A549 (lung adenocarcinoma); assay: MTT proliferation assay, 72 h; type: cell-based; conditions: Homo sapiens, A549 cells
Experimental: as §1, §2

Work on `c1cc(C2=NCCN2)c2ccn(Cc3cn(-c4ccc(C5=NCCN5)cc4)nn3)c2c1` (as salt: hydrochloride) [Compound 6, 1-((1-(4-(Dihydro-1H-imidazol-2-yl)phenyl)-1H-1,2,3-triazol-4-yl)methyl)-4-(dihydro-1H-imidazol-2-yl)-1H-indole dihydrochloride] yielded a melting point greater than 250 °C.
`c1cc(-n2cc(Cn3ccc4cc(C5=NCCN5)ccc43)nn2)ccc1C1=NCCN1` (as salt: hydrochloride) [Compound 7, 1-((1-(4-(Dihydro-1H-imidazol-2-yl)phenyl)-1H-1,2,3-triazol-4-yl)methyl)-5-(dihydro-1H-imidazol-2-yl)-1H-indole dihydrochloride] showed a melting point of 228 to 231 °C.
`Cl.Cl.c1cc(C2=NCCN2)ccc1NCc1cn(-c2ccc(C3=NCCN3)cc2)nn1` [Compound 4, 1-(4-(4,5-Dihydro-1H-imidazol-2-yl)-phenyl)-4-((4-(4,5-dihydro-1H-imidazol-2-yl)phenyl)aminomethyl)-1H-1,2,3-triazole dihydrochloride] showed an IC50 [1] of 48.9 µM, an IC50 [2] of 41.2 µM and an IC50 [3] of 61.9 µM. For the same compound, the “selectivity index (SI)” value ([4]; normal HFF fibroblasts versus tumor cells) was 2, the melting point was greater than 250 °C and the IC50 [5] was 46.7 µM.
Compound `O=c1[nH]cc(F)c(=O)[nH]1` [Compound 5-FU, 5-Fluorouracil, reference compound] has an IC50 [2] of 8.81 µM, an IC50 [3] of 0.08 µM and an IC50 [5] of 2.8 µM.
In the case of `c1cc(-n2cc(Cn3ccc4cc(C5=NCCN5)ccc43)nn2)ccc1C1=NCCN1` [Compound 7, 1-((1-(4-(Dihydro-1H-imidazol-2-yl)phenyl)-1H-1,2,3-triazol-4-yl)methyl)-5-(dihydro-1H-imidazol-2-yl)-1H-indole dihydrochloride], the IC50 [1] is reported as 69.1 µM, the IC50 [2] is reported as greater than 100 µM and the IC50 [3] is reported as 49.8 µM. For the same compound, the IC50 [5] was greater than 100 µM.
For `N#Cc1ccc(NCc2cn(-c3ccc(/C(N)=N/O)cc3)nn2)cc1` [Compound 12, 4-(((1-(4-((Z)-N′-Hydroxycarbamimidoyl)phenyl)-1H-1,2,3-triazol-4-yl)methyl)amino)benzonitrile], the IC50 [1] was greater than 100 µM, the IC50 [2] was greater than 100 µM and the IC50 [3] was 65.1 µM. For the same compound, the melting point was 222 to 225 °C and the IC50 [5] was greater than 100 µM.
Compound `N/C(=N\O)c1ccc(OCc2cn(-c3ccc(/C(N)=N/O)cc3)nn2)cc1` [Compound 13, (Z)-N′-Hydroxy-4-(4-((4-((Z)-N′-hydroxycarbamimidoyl)phenoxy)methyl)-1H-1,2,3-triazol-1-yl)benzimidamide] has an IC50 [1] greater than 100 µM, an IC50 [2] greater than 100 µM and an IC50 [3] greater than 100 µM. The melting point was 218 to 221 °C and the IC50 [5] was greater than 100 µM.
Work on `N#Cc1cccc2c1ccn2Cc1cn(-c2ccc(/C(N)=N/O)cc2)nn1` [Compound 14, 1-((1-(4-((Z)-N′-Hydroxycarbamimidoyl)phenyl)-1H-1,2,3-triazol-4-yl)methyl)-4-cyanoindole] yielded an IC50 [1] greater than 100 µM, an IC50 [2] of 65.8 µM and an IC50 [3] greater than 100 µM. The IC50 [5] was greater than 100 µM.
`N/C(=N\O)c1ccc(-n2cc(Cn3ccc4c(/C(N)=N/O)cccc43)nn2)cc1` [Compound 15, (Z)-N′-hydroxy-1-((1-(4-((Z)-N′-hydroxycarbamimidoyl)phenyl)-1H-1,2,3-triazol-4-yl)methyl)-1H-indole-4-carboximidamide] gave an IC50 [1] greater than 100 µM, an IC50 [2] greater than 100 µM and an IC50 [3] greater than 100 µM. For the same compound, the melting point was 229 to 232 °C and the IC50 [5] was greater than 100 µM.
For `N#Cc1ccc2c(ccn2Cc2cn(-c3ccc(/C(N)=N/O)cc3)nn2)c1` [Compound 16, 1-((1-(4-((Z)-N′-Hydroxycarbamimidoyl)phenyl)-1H-1,2,3-triazol-4-yl)methyl)-5-cyanoindole], the IC50 [1] was greater than 100 µM, the IC50 [2] was greater than 100 µM and the IC50 [3] was greater than 100 µM. For the same compound, the IC50 [5] was greater than 100 µM.
`N/C(=N\O)c1ccc(-n2cc(Cn3ccc4cc(/C(N)=N/O)ccc43)nn2)cc1` [Compound 17, (Z)-N′-hydroxy-1-((1-(4-((Z)-N′-hydroxycarbamimidoyl)phenyl)-1H-1,2,3-triazol-4-yl)methyl)-indole-5-carboximidamide] showed an IC50 [1] greater than 100 µM, an IC50 [2] of 60.7 µM and an IC50 [3] greater than 100 µM. For the same compound, the melting point was 232 to 234 °C and the IC50 [5] was greater than 100 µM.
Compound `N/C(=N\O)c1ccc(-n2cc(CNc3cccc4cccnc34)nn2)cc1` [Compound 18, 8-(((1-(4-((Z)-N′-Hydroxycarbamimidoyl)phenyl)-1H-1,2,3-triazol-4-yl)methyl)amino)quinoline] has an IC50 [1] greater than 100 µM, an IC50 [2] of 25.6 µM and an IC50 ([4]; Homo sapiens, Fibroblast, non-tumor HFF fibroblasts, MTT, 72 h) of 9.81 µM. For the same compound, the IC50 [5] was 6.52 µM.
Work on `N/C(=N\O)c1ccc(-n2cc(COc3cccc4cccnc34)nn2)cc1` [Compound 19, 8-((1-(4-((Z)-N′-Hydroxycarbamimidoyl)phenyl)-1H-1,2,3-triazol-4-yl)methoxy)quinoline] yielded an IC50 [1] greater than 100 µM, an IC50 [2] of 64.5 µM and an IC50 [3] of 72.7 µM. It also gave a melting point of 230 to 232 °C and an IC50 [5] of 76.7 µM.
`N/C(=N\O)c1ccc(-n2cc(COc3cc(=O)oc4ccccc34)nn2)cc1` [Compound 21, 4-((1-(4-((Z)-N′-Hydroxycarbamimidoyl)phenyl)-1H-1,2,3-triazol-4-yl)methoxy)coumarin] showed an IC50 [1] greater than 100 µM, an IC50 [2] of 99.7 µM and an IC50 [3] greater than 100 µM. The melting point was 235 to 237 °C and the IC50 [5] was greater than 100 µM.
Compound `N/C(=N\O)c1ccc(-n2cc(COc3ccc4ccc(=O)oc4c3)nn2)cc1` [Compound 22, 7-((1-(4-((Z)-N′-Hydroxycarbamimidoyl)phenyl)-1H-1,2,3-triazol-4-yl)methoxy)coumarin] has an IC50 [1] of 91.4 µM, an IC50 [2] of 87.4 µM and an IC50 [3] greater than 100 µM. The melting point was 232 to 235 °C and the IC50 [5] was greater than 100 µM.
